1 compound from patent US20080262080A1, “Allergy Suppressive Agent” (KYUSHU UNIVERSITY, NATIONAL UNIVERSITY CORPORATION, priority 2004, published 2008) can be followed below.

The subject of this assay is high-affinity IgE receptor (FcεRI). The assay is described as follows: FcεRI expression amount on the cell surface of KU812 cells by flow cytometry. It counts as cell-based, human. Conditions: 24 hours. The protocol:
By using antihuman FcRI antibody (CRA1), the FcεRI expression amount on the surface of human basophil-like cell line KU812 cells was analyzed by flow cytometry. Cells having been incubated by adding DMSO alone were compared with cells having been incubated by adding chrysin. The ratio of overexpression of FcεRI is indicated in percentage. As a basal medium for incubating cells, use was made of RPMI 1640 (Nissui, Japan), to which 100 U/mL of penicillin (Meiji Pharmaceutical Company, Tokyo, Japan), […] of streptomycin (Meiji Pharmaceutical Company, Tokyo, Japan), 12.5 mM of MaHCO3 (Wako Pure Chemical Industries, Osaka, Japan) and 10 mM of HEPES Wako Pure Chemical Industries) had been added. Fetal bovine serum (FBS) purchased form Bio Source International was added to the basal medium to give a concentration of 5 to 10%. Human basophil-like cell line KU812 employed in this experiment was assigned by Japan Collection of Research Bioresources (JCRB) and subcultured and maintained in RPMI 1640 medium comprising 5 to 10% of FBS at 37° C. in 5% CO2 gas under humidification. KU812 cells were incubated in RPMI 1640 medium, to which chrysin dissolved in DMSO had been added, for 0 to 24 hours. A system wherein the cells were incubated in the medium comprising DMSO alone was used as a control. After incubating, the cells were collected and incubated in 5% FBS-PBS, to which 10 μg/mL of antihuman FcεRI α chain mouse monoclonal antibody CRA-1 (Kyokuto Pharmaceutical) had been added, at 4° C. for 40 to 60 min. As a negative control, 10 μg/mL of mouse control IgG2b antibody (DAKO) was used. Then, the cells were washed with ice-cooled PBS once and incubated in 5% FBS-PBS, to which 10 μg/mL of antimouse IgG2b FITC-labeled antibody (Protos Immunoresearch) had been added, at 4° C. for 40 to 60 min. After incubating, the cells were washed with PBS and then resuspended in PBS. The cell suspension thus obtained was analyzed by flow cytometry. In the flow cytometry analysis, FACS Calibur (Becton Sickinson, Sunnyvale, Calif.) was employed. The secondary antibody reaction and the subsequent procedures were conducted in the dark and the cells were preserved on ice while conducting the analysis. KU812 cells (5×10^5 cells/mL) was incubated in 5% bovine fetal serum comprising RPMI 1640 medium, to which chrysin (0, 1, 5 and 10 μM) and apigenin (purchased from Aldrich Chem. Co., St. Louis, Mo.; 0, 1, 5 and 10 μM) had been added, for 24 hours. After incubating, the FcεRI expression level on the cell surface was measured by flow cytometry (experimental procedure: see [0047]).

Regarding `O=c1cc(-c2ccc(O)cc2)oc2cc(O)cc(O)c12` [Apigenin], the “FcεRI expression suppressive rate (%)” value (single agent 1 μM) is reported as 5.0%, the “FcεRI expression suppressive rate (%)” value (single agent 5 μM) came to 17.1% and the “FcεRI expression suppressive rate (%)” value (single agent 10 μM) was 36.1%.
